Measurements as given in ChEMBL document CHEMBL5303573, “Mapping human microbiome drug metabolism by gut bacteria and their genes” (Nature, 2019).

Assay: The drug is tested on Blautia hansenii strain: DSM20583 for biotransformation. The drug concentrations were measured before and after a 12-h incubation by liquid-chromatography-coupled mass spectrometry (LC–MS)
Conditions: 2 µM

Structure (SMILES) | Bacterial Biotransformation
CCc1cccc2c3c([nH]c12)C(CC)(CC(=O)O)OCC3 (stereo not given) [ETODOLAC] | Compound NOT metabolized
CC(C)(C)NC[C@H](O)COc1nsnc1N1CCOCC1.O=C(O)/C=C\C(=O)O [TIMOLOL MALEATE] | Compound NOT metabolized

Assay: The drug is tested on Bacteroides vulgatus strain: ATCC8482 for biotransformation. The drug concentrations were measured before and after a 12-h incubation by liquid-chromatography-coupled mass spectrometry (LC–MS)
Conditions: phocaeicola vulgatus, 2 µM

Structure (SMILES) | Bacterial Biotransformation
CC(C)(C)NC[C@H](O)COc1nsnc1N1CCOCC1.O=C(O)/C=C\C(=O)O [TIMOLOL MALEATE] | Compound NOT metabolized

Assay: The drug is tested on Bifidobacterium ruminantium strain: fecal isolate for biotransformation. The drug concentrations were measured before and after a 12-h incubation by liquid-chromatography-coupled mass spectrometry (LC–MS)
Conditions: 2 µM

Structure (SMILES) | Bacterial Biotransformation
CCc1cccc2c3c([nH]c12)C(CC)(CC(=O)O)OCC3 (stereo not given) [ETODOLAC] | Compound NOT metabolized
CC(C)(C)NC[C@H](O)COc1nsnc1N1CCOCC1.O=C(O)/C=C\C(=O)O [TIMOLOL MALEATE] | Compound NOT metabolized

Assay: The drug is tested on Bacteroides xylanisolvens strain: DSM18836 for biotransformation. The drug concentrations were measured before and after a 12-h incubation by liquid-chromatography-coupled mass spectrometry (LC–MS)
Conditions: 2 µM

Structure (SMILES) | Bacterial Biotransformation
CCc1cccc2c3c([nH]c12)C(CC)(CC(=O)O)OCC3 (stereo not given) [ETODOLAC] | Compound metabolized
CC(C)(C)NC[C@H](O)COc1nsnc1N1CCOCC1.O=C(O)/C=C\C(=O)O [TIMOLOL MALEATE] | Compound NOT metabolized

Assay: The drug is tested on Bacteroides fragilis strain: HMW615 for biotransformation. The drug concentrations were measured before and after a 12-h incubation by liquid-chromatography-coupled mass spectrometry (LC–MS)
Conditions: 2 µM

Structure (SMILES) | Bacterial Biotransformation
CCc1cccc2c3c([nH]c12)C(CC)(CC(=O)O)OCC3 (stereo not given) [ETODOLAC] | Compound metabolized

Assay: The drug is tested on Clostridium sporogenes strain: ATCC15579 for biotransformation. The drug concentrations were measured before and after a 12-h incubation by liquid-chromatography-coupled mass spectrometry (LC–MS)
Conditions: 2 µM

Structure (SMILES) | Bacterial Biotransformation
CCc1cccc2c3c([nH]c12)C(CC)(CC(=O)O)OCC3 (stereo not given) [ETODOLAC] | Compound NOT metabolized
CC(C)(C)NC[C@H](O)COc1nsnc1N1CCOCC1.O=C(O)/C=C\C(=O)O [TIMOLOL MALEATE] | Compound NOT metabolized

Assay: The drug is tested on Bacteroides uniformis strain: ATCC8492 for biotransformation. The drug concentrations were measured before and after a 12-h incubation by liquid-chromatography-coupled mass spectrometry (LC–MS)
Conditions: 2 µM

Structure (SMILES) | Bacterial Biotransformation
CCc1cccc2c3c([nH]c12)C(CC)(CC(=O)O)OCC3 (stereo not given) [ETODOLAC] | Compound metabolized
CC(C)(C)NC[C@H](O)COc1nsnc1N1CCOCC1.O=C(O)/C=C\C(=O)O [TIMOLOL MALEATE] | Compound NOT metabolized

Assay: The drug is tested on Eubacterium ventriosum strain: ATCC27560 for biotransformation. The drug concentrations were measured before and after a 12-h incubation by liquid-chromatography-coupled mass spectrometry (LC–MS)
Format: ADME
Set-up: dose 2 uM, timepoint 0 vs 12 hours
Conditions: 2 µM

Structure (SMILES) | Bacterial Biotransformation
CCc1cccc2c3c([nH]c12)C(CC)(CC(=O)O)OCC3 (stereo not given) [ETODOLAC] | Compound NOT metabolized
CC(C)(C)NC[C@H](O)COc1nsnc1N1CCOCC1.O=C(O)/C=C\C(=O)O [TIMOLOL MALEATE] | Compound NOT metabolized

Conditions: segatella copri, 12 h, 2 µM
Description: The drug is tested on Prevotella copri strain: DSM18205 for biotransformation. The drug concentrations were measured before and after a 12-h incubation by liquid-chromatography-coupled mass spectrometry (LC–MS)

Structure (SMILES) | Bacterial Biotransformation
CCc1cccc2c3c([nH]c12)C(CC)(CC(=O)O)OCC3 (stereo not given) [ETODOLAC] | Compound NOT metabolized
CC(C)(C)NC[C@H](O)COc1nsnc1N1CCOCC1.O=C(O)/C=C\C(=O)O [TIMOLOL MALEATE] | Compound NOT metabolized

Assay: The drug is tested on Coprococcus comes strain: ATCC27758 for biotransformation. The drug concentrations were measured before and after a 12-h incubation by liquid-chromatography-coupled mass spectrometry (LC–MS)
Format: ADME
Set-up: dose 2 uM, timepoint 0 vs 12 hours
Conditions: 2 µM

Structure (SMILES) | Bacterial Biotransformation
CCc1cccc2c3c([nH]c12)C(CC)(CC(=O)O)OCC3 (stereo not given) [ETODOLAC] | Compound NOT metabolized
CC(C)(C)NC[C@H](O)COc1nsnc1N1CCOCC1.O=C(O)/C=C\C(=O)O [TIMOLOL MALEATE] | Compound NOT metabolized

Conditions: anaerostipes sp., 12 h, 2 µM
Description: The drug is tested on Anaerostipes sp. strain: fecal isolate for biotransformation. The drug concentrations were measured before and after a 12-h incubation by liquid-chromatography-coupled mass spectrometry (LC–MS)

Structure (SMILES) | Bacterial Biotransformation
CCc1cccc2c3c([nH]c12)C(CC)(CC(=O)O)OCC3 (stereo not given) [ETODOLAC] | Compound NOT metabolized
CC(C)(C)NC[C@H](O)COc1nsnc1N1CCOCC1.O=C(O)/C=C\C(=O)O [TIMOLOL MALEATE] | Compound NOT metabolized

Assay: The drug is tested on Odoribacter splanchnicus strain: fecal isolate for biotransformation. The drug concentrations were measured before and after a 12-h incubation by liquid-chromatography-coupled mass spectrometry (LC–MS)
Conditions: 2 µM

Structure (SMILES) | Bacterial Biotransformation
CCc1cccc2c3c([nH]c12)C(CC)(CC(=O)O)OCC3 (stereo not given) [ETODOLAC] | Compound metabolized
CC(C)(C)NC[C@H](O)COc1nsnc1N1CCOCC1.O=C(O)/C=C\C(=O)O [TIMOLOL MALEATE] | Compound NOT metabolized

Assay: The drug is tested on Ruminococcus lactaris strain: ATCC29176 for biotransformation. The drug concentrations were measured before and after a 12-h incubation by liquid-chromatography-coupled mass spectrometry (LC–MS)
Conditions: 2 µM

Structure (SMILES) | Bacterial Biotransformation
CCc1cccc2c3c([nH]c12)C(CC)(CC(=O)O)OCC3 (stereo not given) [ETODOLAC] | Compound NOT metabolized
CC(C)(C)NC[C@H](O)COc1nsnc1N1CCOCC1.O=C(O)/C=C\C(=O)O [TIMOLOL MALEATE] | Compound NOT metabolized

Assay: The drug is tested on Enterococcus faecalis strain: V583 for biotransformation. The drug concentrations were measured before and after a 12-h incubation by liquid-chromatography-coupled mass spectrometry (LC–MS)
Conditions: 2 µM

Structure (SMILES) | Bacterial Biotransformation
CCc1cccc2c3c([nH]c12)C(CC)(CC(=O)O)OCC3 (stereo not given) [ETODOLAC] | Compound NOT metabolized
CC(C)(C)NC[C@H](O)COc1nsnc1N1CCOCC1.O=C(O)/C=C\C(=O)O [TIMOLOL MALEATE] | Compound NOT metabolized

Assay: The drug is tested on Dorea formicigenerans strain: ATCC27755 for biotransformation. The drug concentrations were measured before and after a 12-h incubation by liquid-chromatography-coupled mass spectrometry (LC–MS)
Conditions: 2 µM

Structure (SMILES) | Bacterial Biotransformation
CCc1cccc2c3c([nH]c12)C(CC)(CC(=O)O)OCC3 (stereo not given) [ETODOLAC] | Compound NOT metabolized
CC(C)(C)NC[C@H](O)COc1nsnc1N1CCOCC1.O=C(O)/C=C\C(=O)O [TIMOLOL MALEATE] | Compound NOT metabolized

Conditions: akkermansia muciniphila, 12 h, 2 µM
Description: The drug is tested on Akkermansia muciniphila strain: ATCC BAA-835 for biotransformation. The drug concentrations were measured before and after a 12-h incubation by liquid-chromatography-coupled mass spectrometry (LC–MS)

Structure (SMILES) | Bacterial Biotransformation
CCc1cccc2c3c([nH]c12)C(CC)(CC(=O)O)OCC3 (stereo not given) [ETODOLAC] | Compound NOT metabolized
CC(C)(C)NC[C@H](O)COc1nsnc1N1CCOCC1.O=C(O)/C=C\C(=O)O [TIMOLOL MALEATE] | Compound NOT metabolized

Assay: The drug is tested on Ruminococcus torques strain: ATCC27756 for biotransformation. The drug concentrations were measured before and after a 12-h incubation by liquid-chromatography-coupled mass spectrometry (LC–MS)
Format: ADME
Set-up: dose 2 uM, timepoint 0 vs 12 hours
Conditions: 2 µM

Structure (SMILES) | Bacterial Biotransformation
CCc1cccc2c3c([nH]c12)C(CC)(CC(=O)O)OCC3 (stereo not given) [ETODOLAC] | Compound NOT metabolized
CC(C)(C)NC[C@H](O)COc1nsnc1N1CCOCC1.O=C(O)/C=C\C(=O)O [TIMOLOL MALEATE] | Compound NOT metabolized

Conditions: roseburia intestinalis, 12 h, 2 µM
Description: The drug is tested on Roseburia intestinalis strain: L1-82 for biotransformation. The drug concentrations were measured before and after a 12-h incubation by liquid-chromatography-coupled mass spectrometry (LC–MS)

Structure (SMILES) | Bacterial Biotransformation
CC(C)(C)NC[C@H](O)COc1nsnc1N1CCOCC1.O=C(O)/C=C\C(=O)O [TIMOLOL MALEATE] | Compound NOT metabolized

Assay: The drug is tested on Providencia rettgeri strain: DSM1131 for biotransformation. The drug concentrations were measured before and after a 12-h incubation by liquid-chromatography-coupled mass spectrometry (LC–MS)
Format: ADME
Set-up: dose 2 uM, timepoint 0 vs 12 hours
Conditions: 2 µM

Structure (SMILES) | Bacterial Biotransformation
CCc1cccc2c3c([nH]c12)C(CC)(CC(=O)O)OCC3 (stereo not given) [ETODOLAC] | Compound NOT metabolized
CC(C)(C)NC[C@H](O)COc1nsnc1N1CCOCC1.O=C(O)/C=C\C(=O)O [TIMOLOL MALEATE] | Compound NOT metabolized
